Measurements reported in PMC8222254, “Self-assembly of an anion receptor with metal-dependent kinase inhibition and potent in vitro anti-cancer properties” (Nature Communications, 2021).
Several values for one entry are separate records, joined by “and”; a condition that tells them apart may be missing. Equal entries are not always repeated.

Experiments:
Test in all cases: Kinase inhibition screen, cell-free 33P ATP assay at 10 μM
Type in all cases: biochemical
[1] = target: T1, 140 purified human kinases (Homo sapiens, UniProt O14757)
T1 sequence (O14757 1-476): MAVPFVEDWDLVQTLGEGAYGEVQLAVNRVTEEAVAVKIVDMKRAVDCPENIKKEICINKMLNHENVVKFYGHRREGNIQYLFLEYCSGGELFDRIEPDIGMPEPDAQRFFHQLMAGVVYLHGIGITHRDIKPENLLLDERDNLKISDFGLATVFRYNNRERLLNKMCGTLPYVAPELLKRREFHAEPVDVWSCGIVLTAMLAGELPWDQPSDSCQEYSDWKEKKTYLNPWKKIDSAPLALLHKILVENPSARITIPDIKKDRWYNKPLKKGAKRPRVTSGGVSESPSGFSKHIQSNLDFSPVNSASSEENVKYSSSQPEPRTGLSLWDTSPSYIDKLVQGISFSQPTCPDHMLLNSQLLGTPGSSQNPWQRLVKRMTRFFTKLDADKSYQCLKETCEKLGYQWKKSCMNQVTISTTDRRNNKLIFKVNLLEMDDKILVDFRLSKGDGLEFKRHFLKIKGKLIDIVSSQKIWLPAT
In short: (§1)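 Radiometric ^33P ATP cell-free format with purified enzymes; both complexes run at 10 μM in duplicate, results plotted on a kinome map via HGNC symbols.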

[2] = target: 140 purified human kinases (Homo sapiens, UniProt O95747); details: for % Activity Run 1 / % Activity Run 2: 10 µM
Chain of 140 purified human kinases (Homo sapiens, UniProt O95747) (O95747 whole entry): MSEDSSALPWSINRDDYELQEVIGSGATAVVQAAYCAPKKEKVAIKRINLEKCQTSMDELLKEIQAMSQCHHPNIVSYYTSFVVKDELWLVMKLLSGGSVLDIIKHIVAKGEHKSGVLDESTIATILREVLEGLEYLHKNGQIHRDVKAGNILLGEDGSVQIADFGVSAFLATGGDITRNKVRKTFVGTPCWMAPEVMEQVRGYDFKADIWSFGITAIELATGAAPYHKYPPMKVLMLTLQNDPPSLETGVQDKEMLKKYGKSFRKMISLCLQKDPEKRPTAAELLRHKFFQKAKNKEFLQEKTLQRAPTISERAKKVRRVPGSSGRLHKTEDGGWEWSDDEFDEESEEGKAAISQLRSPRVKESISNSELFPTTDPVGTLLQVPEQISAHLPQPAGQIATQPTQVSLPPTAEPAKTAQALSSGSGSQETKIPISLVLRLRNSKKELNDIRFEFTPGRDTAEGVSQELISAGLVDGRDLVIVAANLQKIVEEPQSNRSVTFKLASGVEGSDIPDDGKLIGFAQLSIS
In short: as §1

[3] = target: 140 purified human kinases (Homo sapiens, UniProt P11309)
Chain of 140 purified human kinases (Homo sapiens, UniProt P11309) (P11309 whole entry): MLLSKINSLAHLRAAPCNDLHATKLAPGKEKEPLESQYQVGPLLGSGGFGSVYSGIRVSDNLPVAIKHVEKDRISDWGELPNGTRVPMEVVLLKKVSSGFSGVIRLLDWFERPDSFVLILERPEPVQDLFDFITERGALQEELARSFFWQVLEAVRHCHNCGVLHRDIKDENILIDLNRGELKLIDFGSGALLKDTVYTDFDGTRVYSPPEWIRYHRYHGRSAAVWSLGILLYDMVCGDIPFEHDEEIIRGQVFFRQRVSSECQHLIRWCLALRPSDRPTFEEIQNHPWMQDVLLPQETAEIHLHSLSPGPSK
In short: as §1

[4] = target: 140 purified human kinases (Homo sapiens, UniProt O96017)
Chain of 140 purified human kinases (Homo sapiens, UniProt O96017) (O96017 whole entry): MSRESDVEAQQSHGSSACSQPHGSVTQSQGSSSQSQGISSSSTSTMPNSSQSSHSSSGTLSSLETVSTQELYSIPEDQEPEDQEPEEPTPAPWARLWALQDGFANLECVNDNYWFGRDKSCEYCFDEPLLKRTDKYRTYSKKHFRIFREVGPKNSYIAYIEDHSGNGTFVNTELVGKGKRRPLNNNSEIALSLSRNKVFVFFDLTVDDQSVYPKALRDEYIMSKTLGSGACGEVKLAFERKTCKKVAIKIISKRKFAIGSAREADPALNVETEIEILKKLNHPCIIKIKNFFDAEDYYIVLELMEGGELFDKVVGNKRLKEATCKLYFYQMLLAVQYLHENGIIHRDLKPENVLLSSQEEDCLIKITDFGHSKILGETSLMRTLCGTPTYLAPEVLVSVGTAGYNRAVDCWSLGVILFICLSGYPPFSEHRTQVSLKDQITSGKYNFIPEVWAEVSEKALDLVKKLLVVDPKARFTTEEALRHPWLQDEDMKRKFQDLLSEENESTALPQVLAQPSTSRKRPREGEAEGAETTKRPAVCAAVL
In short: as §1

[5] = target: 140 purified human kinases (Homo sapiens, UniProt Q5TCY1)
Chain of 140 purified human kinases (Homo sapiens, UniProt Q5TCY1) (Q5TCY1 whole entry): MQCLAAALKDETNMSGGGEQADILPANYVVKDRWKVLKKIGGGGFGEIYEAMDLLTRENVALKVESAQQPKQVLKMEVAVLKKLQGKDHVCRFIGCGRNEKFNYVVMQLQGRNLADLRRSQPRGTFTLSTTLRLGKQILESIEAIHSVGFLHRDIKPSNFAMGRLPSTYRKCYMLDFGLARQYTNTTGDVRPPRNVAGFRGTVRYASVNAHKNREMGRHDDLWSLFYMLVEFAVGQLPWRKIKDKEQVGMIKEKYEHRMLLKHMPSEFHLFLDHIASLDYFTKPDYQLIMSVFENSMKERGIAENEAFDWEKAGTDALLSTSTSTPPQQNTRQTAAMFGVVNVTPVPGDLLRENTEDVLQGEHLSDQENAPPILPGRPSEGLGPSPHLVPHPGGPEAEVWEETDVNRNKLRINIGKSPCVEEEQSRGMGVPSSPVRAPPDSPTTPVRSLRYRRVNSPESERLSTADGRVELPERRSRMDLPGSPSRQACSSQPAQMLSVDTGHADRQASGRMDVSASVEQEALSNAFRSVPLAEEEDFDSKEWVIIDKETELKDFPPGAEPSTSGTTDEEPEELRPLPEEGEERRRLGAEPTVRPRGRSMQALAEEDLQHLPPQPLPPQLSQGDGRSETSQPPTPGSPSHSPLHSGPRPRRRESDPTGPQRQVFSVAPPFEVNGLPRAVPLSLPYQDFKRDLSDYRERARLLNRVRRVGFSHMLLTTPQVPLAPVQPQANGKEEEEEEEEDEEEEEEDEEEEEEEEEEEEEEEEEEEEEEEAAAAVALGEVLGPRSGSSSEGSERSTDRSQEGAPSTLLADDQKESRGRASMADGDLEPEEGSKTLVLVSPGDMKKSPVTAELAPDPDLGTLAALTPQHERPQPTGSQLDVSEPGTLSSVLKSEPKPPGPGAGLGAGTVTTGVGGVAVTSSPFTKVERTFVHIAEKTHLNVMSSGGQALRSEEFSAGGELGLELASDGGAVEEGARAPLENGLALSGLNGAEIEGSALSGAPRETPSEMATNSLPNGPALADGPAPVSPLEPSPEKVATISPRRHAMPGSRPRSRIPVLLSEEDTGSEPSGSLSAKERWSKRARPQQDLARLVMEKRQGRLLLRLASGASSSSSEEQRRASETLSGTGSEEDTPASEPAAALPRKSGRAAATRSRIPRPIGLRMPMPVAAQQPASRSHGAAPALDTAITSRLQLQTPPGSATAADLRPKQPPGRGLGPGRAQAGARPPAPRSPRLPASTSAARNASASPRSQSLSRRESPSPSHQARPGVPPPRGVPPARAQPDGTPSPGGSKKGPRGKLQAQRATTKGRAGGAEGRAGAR
In short: as §1

[6] = target: 140 purified human kinases (Homo sapiens, UniProt Q14680); details: MELK
Chain of 140 purified human kinases (Homo sapiens, UniProt Q14680) (Q14680 whole entry): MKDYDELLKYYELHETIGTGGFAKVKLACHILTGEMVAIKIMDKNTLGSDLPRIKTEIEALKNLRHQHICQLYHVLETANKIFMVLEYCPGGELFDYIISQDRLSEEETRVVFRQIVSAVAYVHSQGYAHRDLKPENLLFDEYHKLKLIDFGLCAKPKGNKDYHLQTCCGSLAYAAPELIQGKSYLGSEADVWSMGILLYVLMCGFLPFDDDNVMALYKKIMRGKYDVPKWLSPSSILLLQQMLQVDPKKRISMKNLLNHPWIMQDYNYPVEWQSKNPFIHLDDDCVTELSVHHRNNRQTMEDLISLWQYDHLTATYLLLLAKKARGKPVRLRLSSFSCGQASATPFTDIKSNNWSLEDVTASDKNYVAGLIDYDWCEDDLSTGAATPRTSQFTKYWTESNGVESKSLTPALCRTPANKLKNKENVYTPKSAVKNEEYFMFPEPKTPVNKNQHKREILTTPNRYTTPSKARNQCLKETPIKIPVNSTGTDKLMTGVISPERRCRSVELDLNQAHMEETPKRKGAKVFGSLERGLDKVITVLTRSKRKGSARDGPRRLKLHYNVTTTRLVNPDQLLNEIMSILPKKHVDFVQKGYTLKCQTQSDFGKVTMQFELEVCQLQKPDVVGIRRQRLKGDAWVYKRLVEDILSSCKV
In short: as §1

[7] = target: T2, 140 purified human kinases (Homo sapiens, UniProt O14920); details: IKKb; for % Activity inhibition Mean / % Activity inhibition Run 1 / % Activity inhibition Run 2 / % Activity remaining Run 1 / % Activity remaining Run 2: 10 µM
T2 sequence (O14920 1-756): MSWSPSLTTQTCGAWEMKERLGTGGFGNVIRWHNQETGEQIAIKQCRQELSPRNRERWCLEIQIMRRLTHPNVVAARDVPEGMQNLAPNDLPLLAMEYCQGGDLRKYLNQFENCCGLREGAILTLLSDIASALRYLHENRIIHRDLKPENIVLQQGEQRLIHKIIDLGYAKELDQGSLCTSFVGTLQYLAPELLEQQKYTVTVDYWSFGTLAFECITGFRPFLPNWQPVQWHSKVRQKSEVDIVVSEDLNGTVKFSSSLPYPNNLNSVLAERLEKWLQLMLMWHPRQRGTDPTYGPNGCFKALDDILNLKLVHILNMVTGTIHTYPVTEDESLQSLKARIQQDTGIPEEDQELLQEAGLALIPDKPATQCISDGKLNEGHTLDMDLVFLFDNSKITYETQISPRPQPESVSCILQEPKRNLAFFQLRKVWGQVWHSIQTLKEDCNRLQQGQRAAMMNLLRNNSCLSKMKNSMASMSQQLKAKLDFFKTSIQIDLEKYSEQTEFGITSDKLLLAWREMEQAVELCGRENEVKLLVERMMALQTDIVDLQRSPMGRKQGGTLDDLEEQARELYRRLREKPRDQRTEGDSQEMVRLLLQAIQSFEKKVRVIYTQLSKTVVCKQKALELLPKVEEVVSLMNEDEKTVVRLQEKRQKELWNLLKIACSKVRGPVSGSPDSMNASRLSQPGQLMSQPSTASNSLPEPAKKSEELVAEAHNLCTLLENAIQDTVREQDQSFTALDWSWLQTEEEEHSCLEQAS
In short: as §1

[8] = target: 140 purified human kinases (Homo sapiens, UniProt Q06187); details: BTK
Chain of 140 purified human kinases (Homo sapiens, UniProt Q06187) (Q06187 whole entry): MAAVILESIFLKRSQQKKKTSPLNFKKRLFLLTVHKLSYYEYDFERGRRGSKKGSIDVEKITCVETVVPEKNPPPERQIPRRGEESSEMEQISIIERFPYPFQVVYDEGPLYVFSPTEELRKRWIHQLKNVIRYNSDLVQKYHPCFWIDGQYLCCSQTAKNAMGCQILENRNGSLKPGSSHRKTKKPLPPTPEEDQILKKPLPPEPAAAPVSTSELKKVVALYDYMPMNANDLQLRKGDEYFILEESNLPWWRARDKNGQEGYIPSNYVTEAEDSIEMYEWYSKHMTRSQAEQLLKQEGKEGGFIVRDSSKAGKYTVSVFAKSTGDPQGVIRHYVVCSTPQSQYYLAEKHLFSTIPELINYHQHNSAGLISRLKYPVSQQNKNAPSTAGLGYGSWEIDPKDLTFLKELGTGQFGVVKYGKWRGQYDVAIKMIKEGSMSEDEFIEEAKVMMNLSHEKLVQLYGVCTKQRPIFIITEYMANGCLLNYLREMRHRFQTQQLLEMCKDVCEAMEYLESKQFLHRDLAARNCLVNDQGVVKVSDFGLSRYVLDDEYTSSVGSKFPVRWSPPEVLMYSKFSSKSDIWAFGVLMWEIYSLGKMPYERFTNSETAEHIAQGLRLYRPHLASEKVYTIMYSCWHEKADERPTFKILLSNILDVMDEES
In short: as §1

[9] = target: 140 purified human kinases (Homo sapiens, UniProt Q16644); details: for % Activity inhibition Mean / % Activity inhibition Run 1 / % Activity inhibition Run 2 / % Activity remaining Run 1 / % Activity remaining Run 2: 10 µM
Chain of 140 purified human kinases (Homo sapiens, UniProt Q16644) (Q16644 whole entry): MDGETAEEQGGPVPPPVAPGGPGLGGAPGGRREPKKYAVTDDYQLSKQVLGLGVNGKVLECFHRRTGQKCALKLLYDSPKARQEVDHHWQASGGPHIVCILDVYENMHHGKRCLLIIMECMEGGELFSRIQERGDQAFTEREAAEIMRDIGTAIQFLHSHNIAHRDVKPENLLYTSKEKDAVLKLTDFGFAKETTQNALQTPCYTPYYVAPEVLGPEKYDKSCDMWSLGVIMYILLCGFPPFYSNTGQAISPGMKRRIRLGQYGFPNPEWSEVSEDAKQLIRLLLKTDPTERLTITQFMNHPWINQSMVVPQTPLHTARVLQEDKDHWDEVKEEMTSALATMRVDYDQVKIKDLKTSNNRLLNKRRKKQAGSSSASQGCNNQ
In short: as §1

## [Cu+2].[Cu+2].[Cu+2].c1ccc(-c2csc(NCCN(CCNc3nc(-c4ccccn4)cs3)CCNc3nc(-c4ccccn4)cs3)n2)nc1.c1ccc(-c2csc(NCCN(CCNc3nc(-c4ccccn4)cs3)CCNc3nc(-c4ccccn4)cs3)n2)nc1 [[L2Cu3]6+]
[1]; CHK1
  % Inhibition Run 1: 45.6%
  % Inhibition Run 2: 41.5%
  % Inhibition, Mean: 44%
  mean % activity: 56%
[1]; CHK1, Run 1
  % activity: 54.4%
[1]; CHK1, Run 2
  % activity: 58.5%
[2]; OSR1
  % Activation, Mean value: 48%
  % Inhibition Run 1: -39.6%
  % Inhibition Run 2: -55.9%
  % Inhibition, Mean: -48%
  mean % activity: 148%
  % Activity Run 1: 139.60%
  % Activity Run 2: 155.90%
[2]; OSR1, Run 1
  % activity: 139.6%
[2]; OSR1, Run 2
  % activity: 155.9%
[3]; PIM1
  % Inhibition Run 1: 53.7%
  % Inhibition Run 2: 42%
  % Inhibition, Mean: 48%
  mean % activity: 52%
[3]; PIM1, Run 1
  % activity: 46.3%
[3]; PIM1, Run 2
  % activity: 58%
[4]; CHK2
  % Inhibition Run 1: 86.3%
  % Inhibition Run 2: 76.4%
  % Inhibition, Mean: 81%
  mean % activity: 19%
[4]; CHK2, Run 1
  % activity: 13.7%
[4]; CHK2, Run 2
  % activity: 23.6%
[5]; TTBK1
  % Activation, Mean value: 9%
  % Inhibition Run 1: 10%
  % Inhibition Run 2: -27.8%
  % Inhibition, Mean: -9%
  mean % activity: 109%
[5]; TTBK1, Run 1
  % activity: 90%
[5]; TTBK1, Run 2
  % activity: 127.8%
[6]
  % Inhibition Run 1: 38.7%
  % Inhibition Run 2: 33.3%
  % Inhibition, Mean: 36%
  mean % activity: 64%
[6]; Run 1
  % activity: 61.3%
[6]; Run 2
  % activity: 66.7%
[7]
  % Inhibition Run 1: 92.1%
  % Inhibition Run 2: 92.5%
  % Inhibition, Mean: 92%
  mean % activity: 8%
  % Activity inhibition Mean: 92.3%
  % Activity inhibition Run 1: 92.1%
  % Activity inhibition Run 2: 92.5%
  % Activity remaining Run 1: 7.90%
  % Activity remaining Run 2: 7.50%
[7]; Run 1
  % activity: 7.9%
[7]; Run 2
  % activity: 7.5%
[8]
  % Inhibition Run 1: 88.8%
  % Inhibition Run 2: 82.3%
  % Inhibition, Mean: 86%
  mean % activity: 14%
[8]; Run 1
  % activity: 11.2%
[8]; Run 2
  % activity: 17.7%
[9]; MAPKAP-K3
  % Inhibition Run 1: 98.5%
  % Inhibition Run 2: 89.3%
  % Inhibition, Mean: 94%
  mean % activity: 6%
  % Activity inhibition Mean: 93.9%
  % Activity inhibition Run 1: 98.5%
  % Activity inhibition Run 2: 89.3%
  % Activity remaining Run 1: 1.50%
  % Activity remaining Run 2: 10.70%
[9]; MAPKAP-K3, Run 1
  % activity: 1.5%
[9]; MAPKAP-K3, Run 2
  % activity: 10.7%

## CC(=O)[O-].CC(=O)[O-].CC(=O)[O-].CC(=O)[O-].CC(=O)[O-].CC(=O)[O-].[Zn+2].[Zn+2].[Zn+2].c1ccc(-c2csc(NCCN(CCNc3nc(-c4ccccn4)cs3)CCNc3nc(-c4ccccn4)cs3)n2)nc1.c1ccc(-c2csc(NCCN(CCNc3nc(-c4ccccn4)cs3)CCNc3nc(-c4ccccn4)cs3)n2)nc1 [[L2Zn3]6+]
[1]; CHK1
  % Inhibition, Mean: 17%
  % Inhibition, Run 1 / Run 2: 18% and 16%
  mean % activity: 83%
[1]; CHK1, duplicate runs
  % activity: 82% and 84%
[2]; OSR1
  % Activation, Mean value: 38%
  % Inhibition, Mean: -38%
  % Inhibition, Run 1 / Run 2: -37% and -40%
  mean % activity: 138%
  % Activity Run 1: 137.0%
  % Activity Run 2: 140.0%
[2]; OSR1, duplicate runs
  % activity: 137% and 140%
[3]; PIM1
  % Inhibition, Mean: 26%
  % Inhibition, Run 1 / Run 2: 28% and 23%
  mean % activity: 74%
[3]; PIM1, duplicate runs
  % activity: 72% and 77%
[4]; CHK2
  % Inhibition, Mean: 22%
  mean % activity: 78%
[4]; CHK2, duplicate runs
  % activity: 64% and 92%
[5]; TTBK1
  % Activation, Mean value: 8%
  % Inhibition, Mean: -8%
  mean % activity: 108%
[5]; TTBK1, duplicate runs
  % activity: 97% and 119%
[6]
  % Inhibition, Mean: 27%
  % Inhibition, Run 1 / Run 2: 35% and 19%
  mean % activity: 73%
[6]; duplicate runs
  % activity: 65% and 81%
[7]
  % Inhibition, Mean: 92%
  % Inhibition, Run 1 / Run 2: 94% and 90%
  mean % activity: 8%
  % Activity inhibition Mean: 92.0%
  % Activity inhibition Run 1: 94%
  % Activity inhibition Run 2: 90%
  % Activity remaining Run 1: 6%
  % Activity remaining Run 2: 10%
[7]; duplicate runs
  % activity: 6% and 10%
[8]
  % Inhibition, Mean: 47%
  % Inhibition, Run 1 / Run 2: 56% and 39%
  mean % activity: 53%
[8]; duplicate runs
  % activity: 45% and 61%
[9]; MAPKAP-K3
  % Inhibition, Mean: 93%
  % Inhibition, Run 1 / Run 2: 94% and 92%
  mean % activity: 6.6%
  % Activity inhibition Mean: 93.0%
  % Activity inhibition Run 1: 94%
  % Activity inhibition Run 2: 92%
  % Activity remaining Run 1: 6%
  % Activity remaining Run 2: 8%
[9]; MAPKAP-K3, duplicate runs
  % activity: 5.6% and 7.6%
